According to BindingDB's records for patent WO2022070071 (JANSSEN BIOTECH, INC., 2022):

Target: Dihydroorotate dehydrogenase (quinone), mitochondrial (Homo sapiens, UniProt Q02127)
Assay: DHODH enzymatic assay
Procedure: To detect DHODH enzyme activities, dichloroindophenol (DCIP) is added as the final electron acceptor in the assay. DCIP can accept electrons from the reduced coenzyme Q generated in the assay, or from dihydroorotate (DHO) via FMN by binding presumably to the ubiquinone pocket. […] The assay buffer contained […], pH 7.5, 150 mM NaCl, 0.5 mM EDTA, and 0.1% Triton X-100 in MilliQ water. Substrate consisting of 20 mM DHO, 5mM CoQ6, and 1mM DCIP in assay buffer, initiates the reaction. […] Absorbance measurements were obtained using the BMG Phera Star plate-reading spectrophotomer. Purified human DHODH was purchased from Proteros (cat. No. PR-0044). Chemicals were purchased from Sigma-Aldrich, Teknova, and Avanti Polar Lipids. Liquid handling was performed using Labcyte Echo and Formulatrix Tempest.

Sequence of Dihydroorotate dehydrogenase (quinone), mitochondrial (Q02127 whole entry): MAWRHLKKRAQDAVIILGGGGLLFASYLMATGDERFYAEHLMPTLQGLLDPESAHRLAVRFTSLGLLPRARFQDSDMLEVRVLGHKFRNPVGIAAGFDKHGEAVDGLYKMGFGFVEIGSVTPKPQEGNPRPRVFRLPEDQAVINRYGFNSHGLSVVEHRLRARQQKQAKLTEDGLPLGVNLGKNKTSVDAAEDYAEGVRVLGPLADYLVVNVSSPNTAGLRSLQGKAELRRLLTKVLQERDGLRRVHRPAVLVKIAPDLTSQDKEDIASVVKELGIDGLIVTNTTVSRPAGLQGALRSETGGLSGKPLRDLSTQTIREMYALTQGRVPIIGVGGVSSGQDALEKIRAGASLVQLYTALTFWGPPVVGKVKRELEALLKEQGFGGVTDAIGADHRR

Cc1ccnc(Cl)c1-c1cc(C(C)C)c2cc(-c3nc(C(C)(C)O)n(C)n3)c(F)cn2c1=O [WO2022070071, Example 9] and Cc1ccnc(Cl)c1-c1cc(C(C)C)c2cc(-c3cn(C)c(C(C)(C)O)n3)c(F)cn2c1=O [WO2022070071, Example 8] are the same in IC50: 13 nM for the first, 13 nM for the second.

Compared with Cc1n[nH]c(C(F)(F)F)c1-c1cc(C(C)C)c2cc(-c3cn(C)c(C(C)(C)O)n3)c(F)cn2c1=O [WO2022070071, Example 6], Cc1n[nH]c(Cl)c1-c1cc(C(C)C)c2cc(-c3cn(C)c(C(C)(C)O)n3)c(F)cn2c1=O [WO2022070071, Example 4] is 1.5-fold lower in IC50: 4.07 nM for the first, 2.69 nM for the second. The second is the more potent here.

Cc1n[nH]c(Cl)c1-c1cc(C(C)C)c2cc(-c3nc(C(C)(C)O)n(C)n3)c(F)cn2c1=O [WO2022070071, Example 5] and Cc1n[nH]c(C(F)(F)F)c1-c1cc(C(C)C)c2cc(-c3nc(C(C)(C)O)n(C)n3)c(F)cn2c1=O [WO2022070071, Example 7] are within 1.5-fold of each other in IC50: 2.1 nM for the first, 2.51 nM for the second.

Compound Cc1ccccc1-c1cc(C(C)C)c2cc(-c3cn(C)c(C(C)(C)O)n3)c(F)cn2c1=O [WO2022070071, Example 1] has an IC50 of 2.11 nM.
